{"source": "patent US9290788B2", "about": "“Device for determining or studying the state of stimulation of the natural defences of plants or portions of plants” (Institut National De La Recherche Agronomique, priority 2010, dated 2016)", "test_system": "28 target genes (defense genes) in apple tree leaves", "assay": "Test 1: relative expression of the 28 defense genes (qPCR, ΔΔCt) in apple tree seedling leaves subjected to NDS treatments and abiotic stresses", "assay_type": "in vivo, apple tree seedlings (Golden Delicious)", "settings": "for Relative expression of ANS / Relative expression of PAL / Relative expression of PR-1 / Relative expression of PR-2 / Relative expression of PR-4 / Relative expression of PR-5 / Relative expression of PR-8 / Relative expression of PR-14 / Relative expression of PR-15: vs water control", "key": {"[1]": {"settings": "+H2O2, J2, relative to water control"}, "[2]": {"settings": "+H2O2, J3, relative to water control"}, "[3]": {"settings": "+H2O2 (sprayed 24 hours after treatment), J2"}, "[4]": {"settings": "+H2O2 (sprayed 24 hours after treatment), J3"}, "[5]": {"settings": "−H2O2, J2, relative to water control"}, "[6]": {"settings": "−H2O2, J3, relative to water control"}}}
{"smiles": "CC/C=C\\CC1C(=O)CCC1CC(=O)OC", "note": "(stereo not shown) [MeJA, methyl jasmonate]", "values": [{"measurement": "Relative expression ACCO (log base 2)", "setting": "[1]", "value": 3.48}, {"measurement": "Relative expression APOX (log base 2)", "setting": "[1]", "value": 1.87}, {"measurement": "Relative expression CAD (log base 2)", "setting": "[1]", "value": 0.70}, {"measurement": "Relative expression CHS (log base 2)", "setting": "[1]", "value": 3.73}, {"measurement": "Relative expression CSL (log base 2)", "setting": "[1]", "value": 2.26}, {"measurement": "Relative expression CalS (log base 2)", "setting": "[1]", "value": 0.48}, {"measurement": "Relative expression DFR (log base 2)", "setting": "[1]", "value": 3.43}, {"measurement": "Relative expression EDS1 (log base 2)", "setting": "[1]", "value": "−0.17"}, {"measurement": "Relative expression EIN3 (log base 2)", "setting": "[1]", "value": 2.54}, {"measurement": "Relative expression FPPS (log base 2)", "setting": "[1]", "value": "−0.07"}, {"measurement": "Relative expression Far (log base 2)", "setting": "[1]", "value": 0.74}, {"measurement": "Relative expression GST (log base 2)", "setting": "[1]", "value": 0.47}, {"measurement": "Relative expression HMGR (log base 2)", "setting": "[1]", "value": "−0.38"}, {"measurement": "Relative expression JAR (log base 2)", "setting": "[1]", "value": 0.73}, {"measurement": "Relative expression LOX2 (log base 2)", "setting": "[1]", "value": 1.51}, {"measurement": "Relative expression POX (log base 2)", "setting": "[1]", "value": 2.84}, {"measurement": "Relative expression PPO (log base 2)", "setting": "[1]", "value": 0.80}, {"measurement": "Relative expression Pect (log base 2)", "setting": "[1]", "value": "−2.02"}, {"measurement": "Relative expression WRKY (log base 2)", "setting": "[1]", "value": "−0.06"}, {"measurement": "Relative expression ACCO (log base 2)", "setting": "[2]", "value": 2.28}, {"measurement": "Relative expression APOX (log base 2)", "setting": "[2]", "value": 2.11}, {"measurement": "Relative expression CAD (log base 2)", "setting": "[2]", "value": 0.35}, {"measurement": "Relative expression CHS (log base 2)", "setting": "[2]", "value": 1.47}, {"measurement": "Relative expression CSL (log base 2)", "setting": "[2]", "value": 1.46}, {"measurement": "Relative expression CalS (log base 2)", "setting": "[2]", "value": 1.48}, {"measurement": "Relative expression DFR (log base 2)", "setting": "[2]", "value": 1.36}, {"measurement": "Relative expression EDS1 (log base 2)", "setting": "[2]", "value": 0.98}, {"measurement": "Relative expression EIN3 (log base 2)", "setting": "[2]", "value": 1.80}, {"measurement": "Relative expression FPPS (log base 2)", "setting": "[2]", "value": 0.43}, {"measurement": "Relative expression Far (log base 2)", "setting": "[2]", "value": 0.39}, {"measurement": "Relative expression GST (log base 2)", "setting": "[2]", "value": 0.87}, {"measurement": "Relative expression HMGR (log base 2)", "setting": "[2]", "value": 0.60}, {"measurement": "Relative expression JAR (log base 2)", "setting": "[2]", "value": 1.61}, {"measurement": "Relative expression LOX2 (log base 2)", "setting": "[2]", "value": 1.99}, {"measurement": "Relative expression POX (log base 2)", "setting": "[2]", "value": 4.29}, {"measurement": "Relative expression PPO (log base 2)", "setting": "[2]", "value": 1.23}, {"measurement": "Relative expression Pect (log base 2)", "setting": "[2]", "value": 2.16}, {"measurement": "Relative expression WRKY (log base 2)", "setting": "[2]", "value": 3.46}, {"measurement": "Relative expression of ANS", "setting": "[3]", "value": 3.29, "unit": "log2"}, {"measurement": "Relative expression of PAL", "setting": "[3]", "value": 3.36, "unit": "log2"}, {"measurement": "Relative expression of PR-1", "setting": "[3]", "value": 0.40, "unit": "log2"}, {"measurement": "Relative expression of PR-2", "setting": "[3]", "value": 3.89, "unit": "log2"}, {"measurement": "Relative expression of PR-4", "setting": "[3]", "value": 1.25, "unit": "log2"}, {"measurement": "Relative expression of PR-5", "setting": "[3]", "value": "−2.09", "unit": "log2"}, {"measurement": "Relative expression of PR-8", "setting": "[3]", "value": 1.41, "unit": "log2"}, {"measurement": "Relative expression of PR-14", "setting": "[3]", "value": "−0.64", "unit": "log2"}, {"measurement": "Relative expression of PR-15", "setting": "[3]", "value": 3.20, "unit": "log2"}, {"measurement": "Relative expression of ANS", "setting": "[4]", "value": 1.44, "unit": "log2"}, {"measurement": "Relative expression of PAL", "setting": "[4]", "value": 2.01, "unit": "log2"}, {"measurement": "Relative expression of PR-1", "setting": "[4]", "value": 2.84, "unit": "log2"}, {"measurement": "Relative expression of PR-2", "setting": "[4]", "value": 0.68, "unit": "log2"}, {"measurement": "Relative expression of PR-4", "setting": "[4]", "value": 2.84, "unit": "log2"}, {"measurement": "Relative expression of PR-5", "setting": "[4]", "value": "−1.22", "unit": "log2"}, {"measurement": "Relative expression of PR-8", "setting": "[4]", "value": 1.51, "unit": "log2"}, {"measurement": "Relative expression of PR-14", "setting": "[4]", "value": 3.68, "unit": "log2"}, {"measurement": "Relative expression of PR-15", "setting": "[4]", "value": 2.77, "unit": "log2"}, {"measurement": "Relative expression of ANS", "setting": "−H2O2, J2", "value": 2.31, "unit": "log2"}, {"measurement": "Relative expression of PAL", "setting": "−H2O2, J2", "value": 3.17, "unit": "log2"}, {"measurement": "Relative expression of PR-1", "setting": "−H2O2, J2", "value": 1.56, "unit": "log2"}, {"measurement": "Relative expression of PR-2", "setting": "−H2O2, J2", "value": 4.03, "unit": "log2"}, {"measurement": "Relative expression of PR-4", "setting": "−H2O2, J2", "value": 2.68, "unit": "log2"}, {"measurement": "Relative expression of PR-5", "setting": "−H2O2, J2", "value": "−0.59", "unit": "log2"}, {"measurement": "Relative expression of PR-8", "setting": "−H2O2, J2", "value": 1.85, "unit": "log2"}, {"measurement": "Relative expression of PR-14", "setting": "−H2O2, J2", "value": 3.45, "unit": "log2"}, {"measurement": "Relative expression of PR-15", "setting": "−H2O2, J2", "value": "−0.19", "unit": "log2"}, {"measurement": "Relative expression of ANS", "setting": "−H2O2, J3", "value": 1.58, "unit": "log2"}, {"measurement": "Relative expression of PAL", "setting": "−H2O2, J3", "value": 1.66, "unit": "log2"}, {"measurement": "Relative expression of PR-1", "setting": "−H2O2, J3", "value": 2.35, "unit": "log2"}, {"measurement": "Relative expression of PR-2", "setting": "−H2O2, J3", "value": 3.69, "unit": "log2"}, {"measurement": "Relative expression of PR-4", "setting": "−H2O2, J3", "value": 2.63, "unit": "log2"}, {"measurement": "Relative expression of PR-5", "setting": "−H2O2, J3", "value": 1.49, "unit": "log2"}, {"measurement": "Relative expression of PR-8", "setting": "−H2O2, J3", "value": 1.00, "unit": "log2"}, {"measurement": "Relative expression of PR-14", "setting": "−H2O2, J3", "value": 5.09, "unit": "log2"}, {"measurement": "Relative expression of PR-15", "setting": "−H2O2, J3", "value": 1.21, "unit": "log2"}, {"measurement": "Relative expression ACCO (log base 2)", "setting": "[5]", "value": 1.92}, {"measurement": "Relative expression APOX (log base 2)", "setting": "[5]", "value": "−3.00"}, {"measurement": "Relative expression CAD (log base 2)", "setting": "[5]", "value": 1.52}, {"measurement": "Relative expression CHS (log base 2)", "setting": "[5]", "value": 2.97}, {"measurement": "Relative expression CSL (log base 2)", "setting": "[5]", "value": 2.29}, {"measurement": "Relative expression CalS (log base 2)", "setting": "[5]", "value": 0.05}, {"measurement": "Relative expression DFR (log base 2)", "setting": "[5]", "value": 2.92}, {"measurement": "Relative expression EDS1 (log base 2)", "setting": "[5]", "value": 1.91}, {"measurement": "Relative expression EIN3 (log base 2)", "setting": "[5]", "value": 3.82}, {"measurement": "Relative expression FPPS (log base 2)", "setting": "[5]", "value": 0.00}, {"measurement": "Relative expression Far (log base 2)", "setting": "[5]", "value": 2.34}, {"measurement": "Relative expression GST (log base 2)", "setting": "[5]", "value": 1.00}, {"measurement": "Relative expression HMGR (log base 2)", "setting": "[5]", "value": 1.49}, {"measurement": "Relative expression JAR (log base 2)", "setting": "[5]", "value": 1.25}, {"measurement": "Relative expression LOX2 (log base 2)", "setting": "[5]", "value": 1.60}, {"measurement": "Relative expression POX (log base 2)", "setting": "[5]", "value": 0.66}, {"measurement": "Relative expression PPO (log base 2)", "setting": "[5]", "value": 1.28}, {"measurement": "Relative expression Pect (log base 2)", "setting": "[5]", "value": 0.98}, {"measurement": "Relative expression WRKY (log base 2)", "setting": "[5]", "value": 1.25}, {"measurement": "Relative expression ACCO (log base 2)", "setting": "[6]", "value": 1.96}, {"measurement": "Relative expression APOX (log base 2)", "setting": "[6]", "value": 0.95}, {"measurement": "Relative expression CAD (log base 2)", "setting": "[6]", "value": 0.01}, {"measurement": "Relative expression CHS (log base 2)", "setting": "[6]", "value": 1.22}, {"measurement": "Relative expression CSL (log base 2)", "setting": "[6]", "value": 1.81}, {"measurement": "Relative expression CalS (log base 2)", "setting": "[6]", "value": 1.14}, {"measurement": "Relative expression DFR (log base 2)", "setting": "[6]", "value": 1.55}, {"measurement": "Relative expression EDS1 (log base 2)", "setting": "[6]", "value": 1.22}, {"measurement": "Relative expression EIN3 (log base 2)", "setting": "[6]", "value": 1.22}, {"measurement": "Relative expression FPPS (log base 2)", "setting": "[6]", "value": 0.13}, {"measurement": "Relative expression Far (log base 2)", "setting": "[6]", "value": 1.51}, {"measurement": "Relative expression GST (log base 2)", "setting": "[6]", "value": "−0.15"}, {"measurement": "Relative expression HMGR (log base 2)", "setting": "[6]", "value": 1.16}, {"measurement": "Relative expression JAR (log base 2)", "setting": "[6]", "value": 0.63}, {"measurement": "Relative expression LOX2 (log base 2)", "setting": "[6]", "value": 1.45}, {"measurement": "Relative expression POX (log base 2)", "setting": "[6]", "value": 3.86}, {"measurement": "Relative expression PPO (log base 2)", "setting": "[6]", "value": 0.78}, {"measurement": "Relative expression Pect (log base 2)", "setting": "[6]", "value": 3.87}, {"measurement": "Relative expression WRKY (log base 2)", "setting": "[6]", "value": 0.85}]}
